The test system of one experiment is DV90 cell line. Nature of the experiment: cells. In kind it is cell-based, human. As for the experimental part: (§1) a. […] Experiments were performed in triplicate.
A further experiment deals with A549 cell line. Nature of the experiment: cells. In kind it is cell-based, human. Conditions: 72 hours of drug exposure. The protocol: as §1
Another experiment concerns HOP62 cell line. Nature of the experiment: cells. In kind it is cell-based, human. As for the experimental part:
as §1

The test system of the next experiment is DLD1 cell line. Description: cells. The protocol: (§2) Experiments were performed in triplicate.
The subject of a further experiment is HT29 cell line. Description: cells. The protocol: as §2
In another experiment the test system is MDA-MB-231 cell line. Nature of the experiment: cells. As for the experimental part:
as §2
(§3) a. In the first set of assays, ICso values were determined for each drug after 72 hours of drug exposure in each of the tumor cell lines.

For a further experiment, the system named is MCF7 cell line. Nature of the experiment: cells. As for the experimental part:
as §2, §3

The next experiment deals with MDA-MB-435 cell line. Description: cells. As for the experimental part:
as §2, §3

The test system of a further experiment is mouse leukemia (P388). The following applies: reported in EP 610.078; cited from earlier work.
In another experiment the test system is colon (HT-29). Conditions: reported in EP 610.078; cited from earlier work.
Experiment [1] deals with non-small cell lung (A549). Conditions: reported in EP 610.078; cited from earlier work.
Setting [2] is: DLD1, 72 hours of drug exposure.
Where [3] appears, read: HT29, 72 hours of drug exposure.
Where [4] appears, read: MDA-MB-231, 72 hours of drug exposure.
The mark [5] stands for this setting: MCF7, 72 hours of drug exposure.
The mark [6] stands for this setting: MDA-MB-435, 72 hours of drug exposure.

Consider `N.N.[Cl][Pt][Cl]` [Cisplatin], for which the IC50 is 16500 nM in the experiment with DV90 cell line (72 hours of drug exposure); 8250 nM with A549 cell line; 8250 nM in the experiment with HOP62 cell line (72 hours of drug exposure); 24800 nM in the experiment with DLD1 cell line (setting [2]); 6600 nM with HT29 cell line (setting [3]); 8250 nM in the experiment on MDA-MB-231 cell line (setting [4]). For the same molecule, the IC50 with MCF7 cell line (setting [5]) turned out to be 16500 nM; in the experiment with MDA-MB-435 cell line (setting [6]) it was 2640 nM.
In the case of `Nc1ccn([C@@H]2O[C@H](CO)[C@@H](O)C2(F)F)c(=O)n1` [Gemcitabine], the IC50 in the experiment with DV90 cell line (72 hours of drug exposure) came out at 400 nM; with A549 cell line, 4 nM; in the experiment on HOP62 cell line (72 hours of drug exposure), 750 nM; in the experiment with DLD1 cell line (setting [2]), 2000 nM; in the experiment on HT29 cell line (setting [3]), 550 nM; with MDA-MB-231 cell line (setting [4]), 1000 nM. Moreover, the IC50 came to 900 nM in the experiment on MCF7 cell line (setting [5]) and 40 nM in the experiment on MDA-MB-435 cell line (setting [6]).
As for `C/C=C1\NC(=O)[C@H](Cc2ccccc2)NC(=O)[C@@H](C(C)C)NC(=O)[C@@H]([C@@H](C)CC)NC(=O)[C@H](NC(=O)[C@H](NC(=O)[C@H](CCCN)NC(=O)[C@H]2CCCN2C(=O)[C@H](NC(=O)[C@@H](NC(=O)[C@@H](NC(=O)[C@H](NC(=O)CC[C@@H](C)CC)C(C)C)[C@@H](C)O)C(C)C)C(C)C)[C@@H](C)CC)[C@@H](C)OC(=O)[C@H](C(C)C)NC1=O` [PM02734, (4S)-MeHex-D-Val-L-Thr-L-Val-D-Val-D-Pro-L-Orn-D-allo-Ile-cyclo(D-allo-Thr-D-allo-Ile-D-Val-L-Phe-Z-Dhb-L-Val)], the IC50 in the experiment with DV90 cell line (72 hours of drug exposure) stood at 300 nM; in the experiment on A549 cell line it was 200 nM; in the experiment with HOP62 cell line (72 hours of drug exposure), 4000 nM; in the experiment on DLD1 cell line (setting [2]), 350 nM; in the experiment on HT29 cell line (setting [3]), 550 nM; in the experiment with MDA-MB-231 cell line (setting [4]), 6500 nM. For the same molecule, the IC50 in the experiment with MCF7 cell line (setting [5]) is 600 nM; in the experiment on MDA-MB-435 cell line (setting [6]) it was 500 nM.
With `CC(=O)O[C@H]1C(=O)[C@@]2(C)[C@H]([C@H](OC(=O)c3ccccc3)[C@]3(O)C[C@H](OC(=O)[C@H](O)[C@@H](NC(=O)c4ccccc4)c4ccccc4)C(C)=C1C3(C)C)[C@]1(OC(C)=O)CO[C@@H]1C[C@@H]2O` [Paclitaxel], the 50% inhibitory concentration (IC50) in the experiment on DV90 cell line (Homo sapiens, DV-90, 72 hours of drug exposure) turned out to be 30 nM; in the experiment on A549 cell line (Homo sapiens) it was 7 nM; with HOP62 cell line (Homo sapiens, HOP-62, 72 hours of drug exposure), 40 nM; with DLD1 cell line (Homo sapiens, DLD-1, 72 h), 40 nM; with HT29 cell line (Homo sapiens, HT-29, 72 h) it was 10 nM; in the experiment with MDA-MB-231 cell line (Homo sapiens, MDA-MB-231, 72 h) it was 25 nM. The IC50 in the experiment with MCF7 cell line (Homo sapiens, MCF7, 72 h) is 7.5 nM; in the experiment on MDA-MB-435 cell line (Homo sapiens, MDA-MB-435, 72 h) it was 25 nM.
In the case of Kahalalide F, the “in vitro activity” value (in the experiment on mouse leukemia (P388); in the experiment on colon (HT-29); in experiment [1]) was “micromolar activity” in each case.

The values above are taken from patent US20110015135A1, “Antitumoral Treatments” (Pharma Mar S.A., priority 2008, published 2011).
